Reference: patent US20260216181A1, “COMPOSITIONS AND METHODS FOR TREATING CANCER” (Coiled Therapeutics, Inc., priority 2022, published 2026)

What was measured:
RKO xenograft = assay: RKO colon cancer xenograft tumor growth; type: in vivo, athymic Balb/c nude mice
Method: Six-to-eight-week-old female athymic Balb/c nude mice were housed with a temperature-controlled and 12-hour light/12-hour dark cycle environment. For in vivo colon cancer tumor growth, 5×10^6 RKO cells were prepared in 100 μl of DMEM and injected into right flank of female nude mice. Mouse weight and tumor volume were measured twice a week. Tumor volumes were calculated as length×width^2×0.5. Once the tumor volume had reached about 150-175 mm^3, xenografts were randomized into groups (8 mice per group). Animals were treated with vehicle, Compound 80 or oxaliplatin as mentioned in the table. The formulation for vehicle and Compound 80 was 50% PEG400 and 20% Cremophor RH40 final (50% of 40% Cremophor) in Acetate buffer, PH=4. Oxaliplatin was prepared in glucose solution. The mice were sacrificed after around 3 weeks or if the tumors reached a predefined tumor volume cut-off of 2500 mm^3.

HEC-59 xenograft = HEC-59 xenograft tumor growth; type: in vivo, athymic Balb/c nude mice; settings: 20 mpk BID, 40 mpk QD, 30/40 mpk BID
Method: (§1) Compound 80 was tested in other xenograft models using the following cell lines: triple negative breast cancer cell line, MDA-MB-231, ovarian cancer cell line, SKOV-3 and endometrium cell line, HEC-59. For the SKOV-3 xenograft, 1.5×10^7 SKOV-3 cells in 200 μl of 1:1 DMEM:Matrigel (Thermo Fisher, NJ, USA) and for the MDA-MB-231 xenograft, 1.×10^7 MDA-MB-231 cells in 100 μl of 1:1 DMEM:Matrigel (Thermo Fisher, NJ, USA) for was injected in the right flank of six-to-eight-week-old female athymic Balb/c nude mice. When the tumor volume reached mean of ~200 mm^3 mice for SKOV-3 xenografts and between 150-175 mm^3 for MDA-MB-231 xenografts, mice were randomized in a group of 8, and treatment was initiated vehicle, 20 mpk BID, 25 mpk BID and 30 mpk BID of Compound 80. For the HEC-59 xenografts, 1.×10^7 HEC-59 cells in 100 μl of DMEM (Lonza, NJ, USA) was injected in the right flank of six-to-eight-week-old female athymic Balb/c nude mice. When the tumor volume reached mean of ~150 mm^3 mice were randomized in a group of 8 mice, and treatment was initiated vehicle, 20 mpk BID, 40 mpk QD and 30/40 mpk BID of Compound 80.

SKOV-3 xenograft = SKOV-3 xenograft tumor growth; type: in vivo, athymic Balb/c nude mice; settings: 20, 25 and 30 mpk BID
Method: as §1

MDA-MB-231 xenograft = MDA-MB-231 xenograft tumor growth; type: in vivo, athymic Balb/c nude mice; settings: 20, 25 and 30 mpk BID
Method: as §1

neuronal differentiation = settings: rats; Wurdak et al., 2010; cited from earlier work
[1] = Wurdak et al., 2010; cited from earlier work
[2] = system: glioblastoma (GBM) xenografts; settings: Polson et al., 2018; cited from earlier work
ovarian cancer cells = settings: Yao et al., 2014; cited from earlier work
[3] = system: ovarian cancer xenografts; settings: Yao et al., 2014; cited from earlier work

## C[C@@H]1CN(c2ncc(F)c(Nc3cc(-c4ccc(OC(F)F)cc4)cnn3)n2)C[C@H](C)O1 [Compound 80, 5-(4-(difluoromethoxy)phenyl)-N-(2-((2R,6S)-2,6-dimethylmorpholino)-5-fluoropyrimidin-4-yl)pyridazin-3-amine]
RKO xenograft; RKO xenograft, 20 and 30 mg/kg BID, 50 mg/kg QD, PO
  tumor growth inhibition: strong tumor growth inhibition in a dose-dependent manner
RKO xenograft; xenograft model, vs standard of care
  tumor growth inhibition compared to the standard of care (FIG. 1): superior tumor growth inhibition
HEC-59 xenograft
  tumor growth inhibition or regression: Statistically significant tumor growth inhibition or regression
SKOV-3 xenograft
  tumor growth inhibition or regression: Statistically significant tumor growth inhibition or regression
MDA-MB-231 xenograft
  tumor growth inhibition or regression: Statistically significant tumor growth inhibition or regression

## CC(C)CNc1ccnc(NCc2csc(-c3ccccc3)n2)n1 [KHS101]
Neuronal differentiation
  neuronal differentiation: promote neuronal differentiation
[1]
  oral systemic stability: low oral systemic stability
[2]
  tumor growth of glioblastoma (GBM) xenografts: suppressed

## CCN(Cc1ccncc1)Cc1c(O)ccc2c(-c3cc4ccccc4oc3=O)cc(=O)oc12 [SPL-B]
Ovarian cancer cells
  centrosome microtubule nucleation: inhibit the centrosome microtubule nucleation
[3]
  tumor growth in ovarian cancer xenografts: suppress tumor growth
